Tested on: M. tuberculosis LP-FQ-RM9
Type: cell-based, Mycobacterium tuberculosis
Settings: for IC50: read-out: Antituberculosis activity M. tuberculosis LP-FQ-RM9 IC50; for IC90: read-out: Antituberculosis activity M. tuberculosis LP-FQ-RM9 IC90

Compound	IC50 [nM]	IC90 [nM]	activity against the fluoroquinolone-resistant strain (result in words)
COc1ccc2nccc(CCN3CCC(NCc4ccc(Br)c(F)c4)CC3)c2n1 [Compound 1]	380 ± 50	520 ± 145	–
COc1ccc2nccc(CCN3CCC(NCc4ccc(I)c(F)c4)CC3)c2n1 [Compound 2]	420 ± 80	580 ± 180	–
COc1ccc2nccc(CCN3CCC(NCc4cc(F)c(Cl)c(F)c4)CC3)c2n1 [Compound 3]	290	430	–
COc1ccc2nccc(CCN3CCC(NCc4cc(F)c(Br)c(F)c4)CC3)c2n1 [Compound 4]	–	260	–
COc1ccc2nccc(C(O)CC3CCC(NCc4cc(F)c(Br)c(F)c4)CC3)c2n1 (centres unmarked) [Compound 5]	–	1000 ± 75	–
C[C@H]1COc2c(N3CCN(C)CC3)c(F)cc3c(=O)c(C(=O)O)cn1c23 [Levofloxacin, reference compound]	> 10000	> 10000	no activity was observed
